In patent US12180226B2, “Spirotricycle RIPK1 inhibitors and methods of uses thereof” (Merck Sharp & Dohme LLC, priority 2021, dated 2024):

target: RIPK1 (recombinant GST-RIPK1 kinase domain, residues 1-327) (Homo sapiens (Human), UniProt Q13546); experiment: RIPK1-ADP-Glo Enzymatic Assay; format: biochemical; conditions: ADP-Glo; 25 nM GST-RIPK1, 300 μM ATP; assay lower limit ~25 nM; read-out: RIPK1 V0 Ec50
Procedure, shortened: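 Inhibition of ADP formation was measured after compound and enzyme (25 nM) were pre-incubated for 30 minutes at ambient temperature and the kinase reaction ran for 150 minutes at 300 μM ATP with dephosphorylated MBP substrate. EC50 values come from ten-point curves fitted non-linearly.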

Chain of RIPK1 (recombinant GST-RIPK1 kinase domain, residues 1-327) (Q13546 1-327): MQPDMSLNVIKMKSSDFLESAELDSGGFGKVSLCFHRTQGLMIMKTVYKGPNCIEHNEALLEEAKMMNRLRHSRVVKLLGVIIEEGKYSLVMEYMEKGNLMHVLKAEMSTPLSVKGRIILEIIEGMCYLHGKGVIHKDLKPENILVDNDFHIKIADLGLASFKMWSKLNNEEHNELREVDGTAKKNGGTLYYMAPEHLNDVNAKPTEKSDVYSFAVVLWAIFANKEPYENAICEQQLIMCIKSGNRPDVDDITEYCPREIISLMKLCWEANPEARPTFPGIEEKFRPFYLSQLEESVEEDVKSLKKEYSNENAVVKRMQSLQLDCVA

EC50 | Structure (SMILES)
< 25 nM | CC1CC2(CCN1C(=O)c1ccccc1)O[C@@H]1CC[C@@H](c3cc(F)cc(F)c3)N1C2=O (stereo partly drawn) [Example 6.107, (4R,5′S,7a′R)-1-(benzenecarbonyl)-5′-(3,5-difluorophenyl)-2-methyltetrahydro-3′H-spiro[piperidine-4,2′-pyrrolo[2,1-b] [1,3]oxazol]-3′-one]
76 nM | COC(=O)c1cnc(N2CCC3(CC2)O[C@@H]2CC[C@@H](c4ccccc4)N2C3=O)cc1OC [Example 4.210, methyl 4-methoxy-6-[(5′S,7a′R)-3′-oxo-5′-phenyltetrahydro-1H,3′H-spiro[piperidine-4,2′-pyrrolo[2,1-b] [1,3]oxazol]-1-yl]pyridine-3-carboxylate]
92.2 nM | CC1(NC(=O)c2nc(N3CCC4(CC3)O[C@@H]3CC[C@@H](c5cc(F)cc(F)c5)N3C4=O)ncc2F)CC1 [Example 7.11, 2-[(5′S,7a′R)-5′-(3,5-difluorophenyl)-3′-oxotetrahydro-1H,3′H-spiro[piperidine-4,2′-pyrrolo[2,1-b][1,3]oxazol]-1-yl]-5-fluoro-N-(1-methyl-cyclopropyl)pyrimidine-4-carboxamide]
311 nM | O=C(c1ccc(C(F)F)nc1)N1CCC2(CC1)O[C@@H]1CC[C@@H](c3cc(F)cc(F)c3)N1C2=O [Example 6.66, (5′S,7a′R)-1-[6-(difluoromethyl)pyr-idine-3-carbonyl]-5′-(3,5-difluorophenyl)-tetrahydro-3′H-spiro [piperidine-4,2′-pyrrolo[2,1-b][1,3]-oxazol]-3′-one]
129 nM | O=C(c1ccn(C(F)F)n1)N1CCC2(CC1)O[C@@H]1CC[C@@H](c3cc(F)cc(F)c3)N1C2=O [Example 5.41]
699 nM | COC(=O)c1cnc(N2CCC3(CC2)O[C@@H]2CC[C@@H](c4ccccc4)N2C3=O)nc1 [Example 4.194, methyl 2-[(5′S,7a′R)-3′-oxo-5′-phenyltetrahydro-1H,3′H-spiro[piperidine-4,2′-pyrrolo[2,1-b] [1,3]oxazol]-1-yl]pyrimidine-5-carboxylate]
409 nM | O=C(C1CCCC1)N1CCC2(CC1)O[C@@H]1CC[C@@H](c3cc(F)cc(F)c3)N1C2=O [Example 5.32, (5′S,7a′R)-1-(cyclopentane-carbonyl)-5′-(3,5-difluoro-phenyl)tetrahydro-3′H-spiro[piperidine-4,2′-pyrrolo[2,1-b]oxazol]-3′-one]
< 25 nM | O=C1N2[C@@H](CC[C@H]2c2cc(F)cc(F)c2)OC12CCN(c1cc(-c3ccccc3)ncn1)CC2 [Example 4.13, (5′S,7a′R)-5′-(3,5-difluorophenyl)-1-(6-phenylpyrimidin-4-yl)tetrahydro-3′H-spiro[piperidine-4,2′-pyrrolo[2,1-b] [1,3]oxazol]-3′-one]
54.3 nM | N#Cc1ccc(N2CCC3(CC2)O[C@@H]2CC[C@@H](c4cc(F)cc(F)c4)N2C3=O)cc1-n1ccnn1 [Example 4.70, 4-[(5′S,7a′R)-5′-(3,5-difluorophenyl)-3′-oxotetrahydro-1H,3′H-spiro[piperidine-4,2′-pyrrolo[2,1-b] [1,3]oxazol]-1-yl]-2-(1H-1,2,3-triazol-1-yl)benzonitrile]
18 nM | CSc1cc(N2CCC3(CC2)O[C@@H]2CC[C@@H](c4ccccc4)N2C3=O)ncn1 [Example 4.27, (5′S,7a′R)-1-[6-(methylsulfanyl)pyrimidin-4-yl]-5′-phenyltetrahydro-3′H-spiro[piperidine-4,2′-pyrrolo[2,1-b] [1,3]oxazol]-3′-one]
< 25 nM | O=C1N2[C@@H](CC[C@H]2c2cc(F)cc(F)c2)OC12CCN(c1cc(-c3cnn(C(F)F)c3)ncn1)CC2 [Example 10.1, (5′S,7a′R)-1-(6-(1-(difluoromethyl)-1H-pyrazol-4-yl)pyrimidin-4-yl)-5′-(3,5-difluorophenyl) tetrahydro-3′H-spiro[piperidine-4,2′-pyrrolo[2,1-b]oxazol]-3′-one]
